According to US10111449B2, “Production procedure for a functional feed based in ellagic acid, cimenol and alliin from vegetable extracts to be used as pronutrient in animal feed” (BIOVET, S.A., priority 2015, dated 2018):

Key:
yeasts and fungi = assay: Kill of yeasts and fungi on contact with cimenol ring; assay type: cell-based; conditions: appropriate concentrations, 10 minutes of contact
Method: On yeasts and fungi, appropriate concentrations of cimenol ring achieves to kill 100% of microorganisms in just 10 minutes of contact. Cell lysis and release of cellular contents into the medium are observed. At electronic microscope, yeasts and fungi are malformed and have fractures in cell walls, especially those found in the proliferation phase.

[1] = system: bacteria, yeast and fungal; gastrointestinal pathogens; assay: In vitro tests and field trials of cimenol ring against gastrointestinal pathogens
Text: In vitro tests and field trials indicate that cimenol ring is effective against bacteria, yeast and fungal; gastrointestinal pathogens whose mechanisms of action are: […]

Question: For cimenol [cimenol ring], which kill of microorganisms (yeasts and fungi) is on record?
Answer: The kill of microorganisms was 100%.

Question: What about the “effectiveness against bacteria, yeast and fungal gastrointestinal pathogens” value [1] of the same substance?
Answer: Its value is “effective”.
